US6706692B1, “6-deoxy erythromycin derivatives, method for preparing same and use as medicines” (Aventis Pharma S.A., priority 1998, dated 2004)

What was measured:
Test in all cases: Method of dilutions in liquid medium (M.I.C.)
Type in all cases: cell-based
Settings in all cases: reading after 24 hours, 37° C.
S. pneumoniae 032UC1 = test system: S. pneumoniae 032UC1
Protocol: (§1) A—Method of Dilutions in Liquid Medium A series of tubesis prepared in which the same quantity of nutritive sterile medium is distributed. Increasing quantities of the product to be studied are distributed into each tube, then each tube is sown with a bacterial strain. After incubation for twenty-four hours in a heating chamber at 37° C., the growth inhibition is evaluated by transillumination, which allows the minimal inhibitory concentrations (M.I.C.) to be determined, expressed in micrograms/cm^3. The following results were obtained with the product of the example: (reading after 24 hours)

S. pneumoniae 030PW23c = test system: S. pneumoniae 030PW23c
Protocol: as §1

E. faecium 02D3HT1 = test system: E. faecium 02D3HT1
Protocol: as §1

[1] = test system: Streptococcus gr;G 02GOGR5
Protocol: as §1

S. agalactiae 02B1HT1 = test system: S. agalactiae 02B1HT1
Protocol: as §1

S. agalactiae 02B1SJ1c = test system: S. agalactiae 02B1SJ1c
Protocol: as §1

S. aureus 011UC4 = test system: S. aureus 011UC4
Protocol: as §1

S. mitis 02MitCB1 = test system: S. mitis 02MitCB1
Protocol: as §1

S. pneumoniae 030RO1i = test system: S. pneumoniae 030RO1i
Protocol: as §1

S. pneumoniae 030SJ5i = test system: S. pneumoniae 030SJ5i
Protocol: as §1

E. faecalis 02D2UC1 = test system: E. faecalis 02D2UC1
Protocol: as §1

S. pneumoniae 030GR20 = test system: S. pneumoniae 030GR20
Protocol: as §1

S. mitis 02MitGR16i = test system: S. mitis 02MitGR16i
Protocol: as §1

Substance: 3-de[2,6-dideoxy-3-C-methyl-3-0-methyl-alpha-L-ribo-hexopyranosyl)-oxy]-3-oxo-12,11-[oxycarbonyl[[4-[4-(3-pyridinyl)-1H-imidazol-1-yl]-butyl]-imino]]-6,11,12-trideoxy-erythromycin [product of the example]
- minimal inhibitory concentrations (M.I.C.) (S. pneumoniae 032UC1): <=0.02 micrograms/cm^3
- minimal inhibitory concentrations (M.I.C.) (S. pneumoniae 030PW23c): 0.300 micrograms/cm^3
- minimal inhibitory concentrations (M.I.C.) (E. faecium 02D3HT1): 0.040 micrograms/cm^3
- minimal inhibitory concentrations (M.I.C.) [1]: 0.040 micrograms/cm^3
- minimal inhibitory concentrations (M.I.C.) (S. agalactiae 02B1HT1): <+0.02 micrograms/cm^3
- minimal inhibitory concentrations (M.I.C.) (S. agalactiae 02B1SJ1c): 2.500 micrograms/cm^3
- minimal inhibitory concentrations (M.I.C.) (S. aureus 011UC4): 0.300 micrograms/cm^3
- minimal inhibitory concentrations (M.I.C.) (S. mitis 02MitCB1): 0.040 micrograms/cm^3
- minimal inhibitory concentrations (M.I.C.) (S. pneumoniae 030RO1i): 0.600 micrograms/cm^3
- minimal inhibitory concentrations (M.I.C.) (S. pneumoniae 030SJ5i): 0.600 micrograms/cm^3
- minimal inhibitory concentrations (M.I.C.) (E. faecalis 02D2UC1): 0.080 micrograms/cm^3
- minimal inhibitory concentrations (M.I.C.) (S. pneumoniae 030GR20): 0.600 micrograms/cm^3
- minimal inhibitory concentrations (M.I.C.) (S. mitis 02MitGR16i): 0.300 micrograms/cm^3
